According to patent US20100179091A1, “Treatment of Conditions Related to Shock” (THE REGENTS OF THE UNIVERSITY OF CALIFORNIA, priority 2007, published 2010):

System: shock induced in lab rodents
Assay: Survival of lab rodents after induced shock, treated with digestive enzyme inhibitor
Type: in vivo, rodent
Source text: The present invention is based on the latest research using rodent models of human hemorrhagic shock. Here it has been discovered that the sudden lowering of blood pressure that occurs in people suffering from […] can provoke the body's digestive enzymes to break down the body's own intestinal and other tissues as if it were food. Such enzymes' abnormal actions may be defined as “auto-digestion.” Auto-digestion is dangerous because not only does it injure healthy tissue but also contributes to multi-organ failure, which can be fatal.
The healthy cells of the animals' intestinal tissue react to auto-digestion by releasing a slew of substances that can be toxic to the heart and other body organs. These substances, termed cytotoxic mediators, can reach these body organs via the blood stream. In recent studies, shock was induced in 19 lab rodents, all of which were then treated with therapies that mirror the emergency room care given to many human patients who suffer shock, which typically occurs when blood flow to the heart, lungs and other body organs is slowed as a result of trauma, dehydration, heart attack, stroke or radiation.
A total of 10 of the 19 lab rodents in shock were also treated with the experimental digestive enzyme inhibitor called ANGD. […] However, only one of the nine “untreated” animals in shock survived. […]

## CS(=O)(=O)O.CS(=O)(=O)O.N=C(N)Nc1ccc(C(=O)Oc2ccc3cc(C(=N)N)ccc3c2)cc1 [ANGD]
10 of 19 lab rodents in shock treated with ANGD plus basic shock care, one of nine untreated survived
  animals surviving: Eight of the ten survived
Lab animals in which shock had been induced
  survival rate: dramatically improved the survival rate
